From US5399565A, “Pyrazolidinone CCK and gastrin antagonists and pharmaceutical formulations therof” (priority 1993, dated 1995)
pIC50: −log10 of the molar value.

Key:
[1] = biological target: T1, peripheral type CCK receptors in rat pancreas (Rattus norvegicus, UniProt P30551); test: Binding to peripheral type CCK receptors in rat pancreas (3H-L-364,718); conditions: at 10 μM; read-out: Pancreas Percent Inhibition
T1 construct: Pancreas was obtained from male Sprague-Dawley rats; from tissue; host or cells: pancreas membranes of male Sprague-Dawley rats
T1 sequence (P30551 1-444): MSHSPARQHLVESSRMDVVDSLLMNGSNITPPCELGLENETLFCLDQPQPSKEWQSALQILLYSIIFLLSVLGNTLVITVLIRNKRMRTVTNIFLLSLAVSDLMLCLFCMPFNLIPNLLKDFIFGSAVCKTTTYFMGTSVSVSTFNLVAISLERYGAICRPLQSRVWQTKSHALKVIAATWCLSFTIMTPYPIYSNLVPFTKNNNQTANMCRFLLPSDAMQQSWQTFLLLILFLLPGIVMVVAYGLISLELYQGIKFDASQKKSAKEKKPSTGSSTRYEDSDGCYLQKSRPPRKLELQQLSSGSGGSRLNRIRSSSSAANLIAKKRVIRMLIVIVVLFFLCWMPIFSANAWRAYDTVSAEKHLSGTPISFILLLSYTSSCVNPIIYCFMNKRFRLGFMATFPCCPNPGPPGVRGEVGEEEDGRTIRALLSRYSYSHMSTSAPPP
Method: Binding to peripheral type CCK receptors in rat pancreas was done according to the method of Chang et al. (Mol. Pharmacol. 30: 212-217, 1986) using ^3 H-L364, 718. Pancreas was obtained from male Sprague-Dawley rats, 150-200 g, after decapitation, and dissected free from adipose and connective tissue. The tissue was homogenized in 30 volumes of 50 mM Tris buffer, pH 7.4 and centrifuged at 40,000 g for 10 min. The tissue pellet was washed by resuspension and centrifugation as described above. The final pellet was suspended in 500 volumes of assay buffer (50 mM Tris buffer, pH 7.4, 5 mM MgCl2, 0.14 mg/ml bacitracin, and 5 mM dithiothreitol) to give a protein concentration of 30-60 μg/200 μl . Reagent volumes for the assay were the same as those used for CCK binding to brain membranes. Tritium labeled L-364,718 (Dupont NEN, NET-971) was used as the ligand at a concentration of 0.4-0.6 nM. The samples were incubated 1 hour at room temperature and then filtered as described for the CCK-brain receptor. Scintillation cocktail was added to the filters which were counted for radioactivity using a Micromedic Taurus automatic liquid scintillation counter.
Compound samples were prepared and IC-50 values were determined as described for the CCK-brain experiments. Non-specific binding was that amount left bound to the filters after adding 100 nM L-364,718.

brain CCK receptor = biological target: T2, brain CCK receptor (Mus musculus, UniProt P56481); test: CCK receptor binding, mouse brain membranes (125I-CCK-8 sulfate); conditions: for inhibition at 10 µM / inhibition at 1 µM: read-out: Brain Percent Inhibition; for pIC50: mouse brain membranes, read-out: Brain IC50
T2 construct: from tissue; host or cells: forebrain membranes of male CF-1 mice
T2 sequence (P56481 1-453): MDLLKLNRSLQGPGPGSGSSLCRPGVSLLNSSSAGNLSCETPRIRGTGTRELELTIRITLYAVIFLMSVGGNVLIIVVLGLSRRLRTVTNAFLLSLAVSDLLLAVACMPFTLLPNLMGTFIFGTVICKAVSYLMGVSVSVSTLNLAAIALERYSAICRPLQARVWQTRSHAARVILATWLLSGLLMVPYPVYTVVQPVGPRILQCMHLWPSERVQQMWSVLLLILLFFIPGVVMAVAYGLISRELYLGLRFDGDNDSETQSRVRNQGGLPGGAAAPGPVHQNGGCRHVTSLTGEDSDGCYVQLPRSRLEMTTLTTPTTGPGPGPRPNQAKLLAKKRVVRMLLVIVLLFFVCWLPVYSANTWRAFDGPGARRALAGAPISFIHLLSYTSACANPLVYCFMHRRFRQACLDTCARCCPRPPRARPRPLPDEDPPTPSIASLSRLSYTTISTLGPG
Method: Brain CCK receptor binding was performed using mouse brain membranes according to the method of Chang and Lotti (Proc. Natl. Acad. Sci. 83: 4923-4926, 1986). Male CF-1 mice, 23-25 g were sacrificed by cervical dislocation, the forebrain removed and placed in ice cold 50 mM Tris buffer, pH 7.4. The tissue was homogenized in 100 volumes of the Tris buffer with a Brinkman Polytron or Tekmar Tissumizer and then centrifuged at 40,000 g for 10 min. Pellets were resuspended in Tris buffer, centrifuged as above and then resuspended in 100 volumes of assay buffer, pH 6.5 (20 mM N-2-hydroxyethyl-piperazine-N'-2-ethane sulfonic acid (HEPES), 1 mM ethylene glycol his (2-aminoethyl ether-N,N,N',N'-tetraacetic acid) (EGTA), 5 mM MgCl2, 130 mM NaCl, and 0.25 mg/ml bacitracin). The binding assay consisted of 50 μL of compound (or buffer for total binding), 50 μL of ^125 I-CCK-8 sulfate (20 pM) (Amersham IM- 159), 200 μL of assay buffer and 200 μL of homogenate (80-120 μg protein). The samples were incubated at room temperature (25°) for 2 hours, and they were then filtered through GF/B glass fiber filters (soaked in wash buffer for 2 hours before use) using a 48 well Brandel cell harvester designed for receptor binding. The filters were washed twice with 3 ml of 50 mM Tris buffer, pH 7.4, containing 0.01% BSA and then counted for radioactivity in plastic tubes with a Micromedic 10/600 automatic gamma counter.
Compounds were dissolved in dimethyl sulfoxide (DMSO) at a concentration of 10 mM and then further diluted with assay buffer. The concentration of DMSO in the incubation was 0.1% or less and had no effect on the assay at that level. IC-50 values of displacement curves were determined using 7 concentrations of compound and were calculated using the ALLFIT computer program of DeLean, Munson and Rodbard (Am. J. Physiol. 235: E97-E102, 1978). Non-specific binding was determined as the displacement of the radioligand by 100 nM CCK-8 sulfate.

Row | inhibition at 10 µM [1] [%] | inhibition at 10 µM (brain CCK receptor) [%] | pIC50 (brain CCK receptor) | inhibition at 1 µM (brain CCK receptor) [%] | SMILES
1 | 2 | 34 | – | – | O=C(Nc1ccc(Cl)c(C(F)(F)F)c1)N1N[C@@H](c2ccccc2)[C@H](c2ccccc2)C1=O (relative stereo) [Example 8, 2-[(4-Chloro-3-trifluoromethylphenyl)amino-carbonyl]-4,5-diphenyl-3-pyrazolidinone]
2 | 70 | – | 5.37 | – | O=C1CC(c2ccc(-c3ccccc3)cc2)N(C(=O)Nc2cccc(Cl)c2Cl)N1 (stereo not shown) [Example 68]
3 | 78 | – | 6.06 | – | CC(NC(=O)N1NC(=O)[C@@H](c2ccccc2)[C@@H]1c1ccccc1)c1ccc(Br)cc1 (relative stereo) [Example 103]
4 | 51 | – | 6.41 | – | O=C1NN(C(=O)Nc2ccc(F)c(Cl)c2)[C@H](c2ccccc2)[C@H]1c1ccccc1 (relative stereo) [Example 47]
5 | 36 | – | – | 13 | CCCCC1C(c2ccccc2)C(=O)NN1C(=O)Nc1cccc(C(F)(F)F)c1 (stereo not shown) [Example 70]
6 | 21 | – | – | 25 | CN(C)c1ccc(C2C(c3ccccc3)C(=O)NN2C(=O)Nc2ccc(C(F)(F)F)cc2)cc1 (stereo not shown) [Example 113]
7 | 49 | – | 5.74 | – | O=C1NN(C(=O)Cc2ccc(Cl)c(Cl)c2)[C@@H](c2ccccc2)[C@@H]1c1ccccc1 (relative stereo) [Example 78]
8 | 9 | 43 | – | – | O=C1NN(C(=O)Oc2ccccc2)[C@@H](c2ccccc2)[C@@H]1c1ccccc1 (relative stereo) [Example 79]
9 | 15 | – | – | 25 | O=C1NN(C(=O)Nc2ccc(F)cc2F)[C@H](c2ccccc2)[C@H]1c1ccccc1 (relative stereo) [Example 56]
10 | 12 | – | 5.82 | – | CCOc1ccc(NC(=O)N2NC(=O)[C@@H](c3ccccc3)[C@@H]2c2ccccc2)cc1 (relative stereo) [Example 34]
11 | 47 | – | 7.12 | – | CCc1ccc(NC(=O)N2NC(=O)[C@@H](c3ccccc3)[C@@H]2c2ccccc2)cc1 (relative stereo) [Example 26]
12 | 24 | – | 6.64 | – | CC(C)Oc1cccc(NC(=O)N2NC(=O)[C@H](c3ccccc3)[C@H]2c2ccccc2)c1 (relative stereo) [Example 43]
13 | 12 | – | – | 37 | O=C(Nc1ccc(C(F)(F)F)cc1)N1N[C@@H](c2ccccc2)[C@H](c2ccccc2)C1=O (relative stereo) [Example 83]
14 | 20 | 16 | – | – | CC(C)C1C(c2ccccc2)C(=O)NN1C(=O)Nc1ccc(Br)cc1 (stereo not shown) [Example 73]
15 | 37 | – | 5.66 | – | O=C1NN(C(=S)Nc2ccc(C(F)(F)F)cc2)[C@H](c2ccccc2)[C@H]1c1ccccc1 (relative stereo) [Example 62]
16 | 37 | 40 | – | – | O=C1NN(C(=O)Nc2cccnc2)[C@@H](c2ccccc2)[C@@H]1c1ccccc1 (relative stereo) [Example 88]

Row | inhibition at 10 µM [1] [%] | inhibition at 10 µM (brain CCK receptor) [%] | pIC50 (brain CCK receptor) | inhibition at 1 µM (brain CCK receptor) [%] | SMILES
17 | 9 | – | 5.28 | – | O=C1NN(C(=O)Oc2ccc([N+](=O)[O-])cc2)[C@@H](c2ccccc2)[C@@H]1c1ccccc1 (relative stereo) [Example 80]
18 | 36 | 68 | – | – | CN(C(=O)N1NC(=O)[C@@H](c2ccccc2)[C@@H]1c1ccccc1)c1ccc(Cl)cc1 (relative stereo) [Example 19]
19 | 4 | 55 | – | – | O=C1NN(C(=O)Cc2cccc(C(F)(F)F)c2)[C@H](c2ccccc2)[C@H]1c1ccccc1 (relative stereo) [Example 76]
20 | 75 | – | – | 44 | O=C1NN(C(=O)Nc2cc(Cl)cc(Cl)c2)[C@H](c2ccccc2)[C@H]1c1ccccc1 (relative stereo) [Example 59]
21 | 59 | 95 | – | – | O=C1NN(C(=O)Sc2ccc(Br)cc2)[C@@H](c2ccccc2)[C@@H]1c1ccccc1 (relative stereo) [Example 81]
22 | 21 | 57 | – | – | Cc1cccc(NC(=O)N2NC(=O)[C@H](c3ccccc3)[C@H]2c2ccccc2)c1 (relative stereo) [Example 41]
23 | 33 | 74 | – | – | O=C1NN(C(=O)NCc2ccccc2Cl)[C@@H](c2ccccc2)[C@@H]1c1ccccc1 (relative stereo) [Example 98]
24 | 15 | 23 | – | – | O=C1NN(C(=O)c2ccc(C(F)(F)F)cc2)[C@H](c2ccccc2)[C@H]1c1ccccc1 (relative stereo) [Example 74]
25 | 14 | – | 6.68 | – | Cc1ccc(NC(=O)N2NC(=O)[C@@H](c3ccccc3)[C@@H]2c2ccccc2)cc1 (relative stereo) [Example 25]
26 | 7 | – | 5.89 | – | C[C@H](NC(=O)N1NC(=O)C(c2ccccc2)C1c1ccccc1)c1ccccc1 (stereo partly shown) [Example 101]
27 | 98 | – | 7.10 | – | O=C1NN(C(=O)Nc2ccc(Cl)c([N+](=O)[O-])c2)[C@H](c2ccccc2)[C@H]1c1ccccc1 (relative stereo) [Example 48]
28 | 17 | – | 5.92 | – | O=C1NN(C(=O)Nc2ccccc2C(F)(F)F)[C@H](c2ccccc2)[C@H]1c1ccccc1 (relative stereo) [Example 53]
29 | 23 | – | 6.31 | – | CC(=O)c1ccc(NC(=O)N2NC(=O)[C@@H](c3ccccc3)[C@@H]2c2ccccc2)cc1 (relative stereo) [Example 23]
30 | 55 | – | 5.72 | – | O=C(O)CN1C(=O)[C@@H](c2ccccc2)[C@H](c2ccccc2)N1C(=O)Nc1ccc(Br)cc1 (relative stereo) [Example 12 (N--), 1-[(4-Bromophenyl)aminocarbonyl]-2-carboxymethyl-4,5-diphenyl-3-pyrazolidinone]
31 | 47 | – | 6.22 | – | O=C1NN(C(=O)Nc2ccc(Cl)cc2Cl)[C@H](c2ccccc2)[C@H]1c1ccccc1 (relative stereo) [Example 55]
32 | 63 | – | – | 45 | O=C1NN(C(=O)Nc2cccc3ccccc23)[C@@H](c2ccccc2)[C@@H]1c1ccccc1 (relative stereo) [Example 90]
